The nature of the data set: on-resin side-chain lactamisation Lys(NH2)/Glu(COOH) after Pd(0)/PhSiH3 removal of Alloc/OAll; DIC 30 eq + OxymaPure 30 eq; ProTide resin 0.19 mmol/g, ca. 300 mL DCM, 2 days. The conditions noted are these: the molecule shown is the open-chain precursor, 57-membered ring, scale: % HPLC purity of cyclic product.

Turning to “Fmoc-Thr(tBu)-Lys(NH2)-Asn(Trt)-His(Trt)-Gln(Trt)-Gly-Leu-Gly-Arg(Pbf)-Gly-Asp(OtBu)-Gln(Trt)-Thr(tBu)-Thr(tBu)-Pro-Ala-Gln(Trt)-Glu(COOH)-Ala-Gln(Trt)-Thr(tBu)-Gly-Trp(Boc)-Val-Gln(Trt)-Asn(Trt)-NH-ProTide resin”, the ring closure, conversion by HPLC (48.0 h) came out at 80.8.
Turning to “Fmoc-Thr(tBu)-Lys(NH2)-Asn(Trt)-His(Trt)-Gln(Trt)-Gly-Pro-Gly-Arg(Pbf)-Gly-Asp(OtBu)-Gln(Trt)-Thr(tBu)-Thr(tBu)-Leu-Ala-Gln(Trt)-Glu(COOH)-Ala-Gln(Trt)-Thr(tBu)-Gly-Trp(Boc)-Val-Gln(Trt)-Asn(Trt)-NH-ProTide resin”, the ring closure, conversion by HPLC (168.0 h) stood at 0.
Take “Fmoc-Thr(tBu)-Lys(NH2)-Asn(Trt)-His(Trt)-Gln(Trt)-Gly-Pro-Gly-Arg(Pbf)-Gly-Asp(OtBu)-Gln(Trt)-Thr(tBu)-Thr(tBu)-Pro-Ala-Gln(Trt)-Glu(COOH)-Ala-Gln(Trt)-Thr(tBu)-Gly-Trp(Boc)-Val-Gln(Trt)-Asn(Trt)-NH-ProTide resin”: where the note is “48.0 h”, the ring closure, conversion by HPLC came out at 88.6.
As for “Fmoc-Thr(tBu)-Lys(NH2)-Asn(Trt)-His(Trt)-Gln(Trt)-Ser(tBu)-Ala-Gln(Trt)-Arg(Pbf)-Gly-Asp(OtBu)-Leu-Thr(tBu)-Thr(tBu)-Pro-Ala-Gln(Trt)-Glu(COOH)-Ala-Gln(Trt)-Thr(tBu)-Gly-Trp(Boc)-Val-Gln(Trt)-Asn(Trt)-NH-ProTide resin”, for the setting “48.0 h”, the ring closure, conversion by HPLC turned out to be 73.9.

These data come from paper PMC11791882.
